Laboratory results reported in patent US20260223850A1, “SUBSTITUTED PYRROLIDONE COMPOUND, PREPARATION METHOD THEREFOR, COMPOSITION AND APPLICATION THEREOF” (QINGDAO KINGAGROOT CHEMICAL COMPOUND CO., LTD., priority 2023, published 2026).
Read-outs that look alike come from different tables or passages of the source.

Tests used:
Type in all cases: in vivo
[1] = tested on: weeds; experiment: Activity assay of compositions, post-emergence spray treatment of stems and leaves (F); settings: F
Description: (§1) The required active ingredient B was purchased from a reagent company or a technical material manufacturer or synthesized by a conventional method. The technical materials were all dissolved with acetone solvents and diluted with aqueous solution of 0.1% Tween® 80 emulsifier, which should be used immediately after dilution.
Weeds were cultivated by the pot culture method. […] Weed seeds with plump and uniform grains were selected, soaked in lukewarm water at 25° C. for 6 hours, and accelerated to germinate in a 28° C. biochemical incubator (in darkness). The weed seeds that had just germinated were evenly placed on the surface of the soil and then covered with 0.5-1 cm soil according to the sizes of seeds.
The weeds were cultured in a controllable sunlight greenhouse at 20-30° C., in natural light and with relative humidity of 57%-72%.
Each treatment was repeated 4 times. Three pots with 20 weed seeds sowed per pot were treated each time.
The drug was applied once in total in the experiment. When at 1.5-2 leaf stage, the weeds were thinned out to maintain 10 strains per pot. Thirty strains were kept in each treatment and then continued to be cultured until the 3-4 leaf stage for further treatment.
The well-cultured test materials were evenly placed on a 0.5 m^2 platform and foliage-sprayed by the 3WP-2000-type walking spray tower at a dosage of […] and a spray pressure of 0.3 MPa. After all the drug solution was sprayed, the air valve was closed. And 30 seconds later, the door of the spray tower was opened, and the nutritional bowl was taken out. Next, the air valve was opened, and the spray tube was cleaned by spraying 50 mL of water. The test materials were transferred to and routinely cultured in a greenhouse after the treatment.
(§2) A method for investigating absolute numbers was employed. The whole seedlings of the survival weeds were cut along the soil surface with a blade, and the fresh weight of the weeds was weighed by an analytical balance. For dead weeds, the fresh weight thereof was considered zero.
(§3) The investigation was performed 21 days after the treatment for once in total.
(§4) The theoretical fresh weight inhibition rate of a mixed combination of each treatment was calculated by the Gowing method (E0═X+Y−X*Y/100), then compared with the measured inhibition rate (E) to evaluate the type of the combined action of the combination of the two on weeds. The combined action was a synergistic effect when E−E0 >10%; an antagonistic effect when E−E0<−10%; an additional effect when −10%≤E−E0≤10%. An optimal ratio was determined according to factors such as actual control effects, characteristics of herbicides, balance of the formulation, etc. In the formula, X represents the fresh weight inhibition rate of the active ingredient A in a dosage of P; Y represents the fresh weight inhibition rate of the active ingredient B in a dosage of Q. The statistical results are shown in Table 6.

[2] = tested on: Mythimna separata; experiment: Insecticidal activity assay, spraying method; settings: 3rd instar, spray, 48 h after drug application
Description: (§5) Spraying method: the technical material was weighed and dissolved with acetone, and the drug liquid was diluted with distilled water to different concentrations. The 2nd instar Spodoptera frugiperda test insects or the 3rd instar Mythimna separata test insects reared indoors with consistent physiological conditions were selected. Ten test insects were picked into each petri dish. Two 2 cm-long corn leaves were placed in the petri dish and sprayed using a spray tower. Each dosage was repeated 3 times, with acetone of the corresponding concentration as a control. After drug application, the insects were transferred to and reared in a condition where the temperature was 25° C. and the humidity was 60%. The results were investigated 48 h after drug application and the death number per treatment was collected, respectively. The mortality was calculated in accordance with the following equation: Mortality (%)=(Number of dead insects/Number of test insects)×100.

[3] = tested on: Leptochloa chinensis; experiment: Seedling stage sealing experiment for water-seeding; settings: 120 g a.i./ha, 15 days, fresh weight control rate
Outline: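 Seeds sown in soil-filled bowls kept moist in water-filled boxes; compound in acetone diluted with water and spray-applied at 120, 60, 30 and 15 g a.i./ha, triplicate. After 15 days in greenhouse, fresh-weight growth control scored on a 0–9 scale (9 = dead, 0 = no effect), averaged.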

[4] = tested on: Echinochloa crusgalli; experiment: as above; settings: 120 g a.i./ha, seedling stage sealing, 15 days, fresh weight control rate
[5] = tested on: Digitaria sanguinalis; experiment: as above; settings: 120 g a.i./ha, seedling stage sealing, 15 days, fresh weight control rate
Outline: (§6)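 Scores (0 = no effect to 9 = dead) reflect fresh-weight control rate 15 days after spray application in greenhouse at 15, 30, 60 or 120 g a.i./ha, mean of three replicates. Seeds were broadcast and soil-covered in pots held moist in water-filled cultivation boxes.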

[6] = tested on: Spodoptera frugiperda; experiment: Insecticidal activity assay, spraying method; settings: 2nd instar, spray, 48 h after drug application; for Spodoptera frugiperda/% (mortality): 500 ppm
Description: as §5

[7] = tested on: Echinochloa phyllopogon; experiment: Seedling stage sealing experiment for water-seeding; settings: 120 g a.i./ha, seedling stage sealing, 15 days, fresh weight control rate
Outline: as §6

[8] = tested on: Huaidao (rice cultivar); experiment: Seedling stage sealing experiment for water-seeding (crop safety); settings: 120 g a.i./ha, seedling stage sealing, 15 days, fresh weight control rate
Outline: as §6

[9] = tested on: weeds; experiment: Activity assay of compositions, soil sealing treatment (S); settings: for pest or weed control at 30 g/ha / pest or weed control at 60 g/ha / pest or weed control at 7.5 g/ha / pest or weed control at 15 g/ha / pest or weed control at 75 g/ha / pest or weed control at 150 g/ha: soil, read-out: Control effect of B applied alone in a corresponding dose (%)
Excerpt: as §1
The test soil was quantitatively filled to ¾ of a pot, and then watered from the bottom of the pot to completely wet the soil to saturation. The seeds of the test weeds were accelerated to Just germinate, and then evenly and quantitatively broadcasted on the soil surface, covered with 0.5-1 cm soil according to the sizes of the seeds, and ready for use 72 hours after broadcasting.
Each treatment was repeated 4 times. Four pots were treated each time with 20 weed seeds per pot.
The seeds were planted in a 20 cm*30 cm square box. Water was added to 2-3 cm deep after sowing, then injected with the drug agent using a syringe, stirred evenly, and left to stand for 2 days to dry naturally. The soil was kept moist afterwards.
as §2, §3
as §4, with “etc.” for “etc. In the formula, X represents the fresh weight inhibition rate of the active ingredient A in a dosage of P; Y represents the fresh weight inhibition rate of the active ingredient B in a dosage of Q. The statistical results are shown in Table 6.”

[10] = Alisma plantago-aquatica, B 30 g a.i./ha
[11] = Alisma plantago-aquatica, B 60 g a.i./ha
[12] = Rotala indica, S, B 30 g a.i./ha
[13] = Rotala indica, S, B 60 g a.i./ha
[14] = Rotala indica, S, B 7.5 g a.i./ha
[15] = Rotala indica, S, B 15 g a.i./ha

Compound: COCCOC(=O)c1nc(-c2ccc(C(F)(F)F)c(OC)c2F)nc(N)c1OC
- Control effect of B applied alone in a corresponding dose (%) ([1]; Alisma plantago-aquatica, B 3.75 g a.i./ha): 43.5%
- Control effect of B applied alone in a corresponding dose (%) ([1]; Alisma plantago-aquatica, B 7.5 g a.i./ha): 57.2%

Compound: C[C@@H](Oc1nc(F)c(Cl)c(N)c1Cl)C(=O)OCC1CCCO1 (some centres unmarked)
- Control effect of B applied alone in a corresponding dose (%) [1, 10]: 38.7%
- Control effect of B applied alone in a corresponding dose (%) [1, 11]: 45.6%

Compound: Cc1cc(C)cc([C@H]2CN(C)C(=O)[C@@H]2C(=O)Nc2cnn(C)c2C2CC2)c1 [277′]
- Mythimna separata/% (mortality) ([2]; 100 ppm): 95%
- Leptochloa chinensis activity level (growth control rate) [3]: 9
- Echinochloa crusgalli activity level (growth control rate) [4]: 9
- Digitaria sanguinalis activity level (growth control rate) [5]: 6 (Level 6: growth control rate greater than or equal to 70% and less than 80%)

Compound: Cc1cc(C)cc([C@H]2CN(C)C(=O)[C@@H]2C(=O)Nc2cnn(C)c2-c2ccc(Cl)cc2)c1 [281′]
- Mythimna separata/% (mortality) ([2]; 500 ppm): 60%

Compound: Cc1cc([C@H]2CN(C)C(=O)[C@@H]2C(=O)Nc2cnn(C)c2Cl)nn1C(F)F [340′]
- mortality at 500 ppm ([2]; Mythimna separata, 500 ppm): 100%
- mortality at 500 ppm ([6]; Spodoptera frugiperda): 87%

Compound: C#CCn1ncc(NC(=O)[C@H]2C(=O)N(C)C[C@@H]2c2cc(C)cc(C)c2)c1Cl [420′]
- Mythimna separata/% (mortality) ([2]; 500 ppm): 90%
- Spodoptera frugiperda/% (mortality) [6]: 75%
- Echinochloa crusgalli activity level (growth control rate) [4]: 9
- Echinochloa phyllopogon activity level (growth control rate) [7]: 9
- Huaidao (rice cultivar) plant damage level [8]: 0

Compound: Cc1cc(C)cc([C@H]2CN(C)C(=O)[C@@H]2C(=O)Nc2cnn(-c3ccccc3)c2Cl)c1 [421′]
- Mythimna separata/% (mortality) ([2]; 500 ppm): 75%
- Spodoptera frugiperda/% (mortality) [6]: 65%
- Echinochloa crusgalli activity level (growth control rate) [4]: 9
- Huaidao (rice cultivar) plant damage level [8]: 0

Compound: Cc1cc(C)cc([C@H]2CN(C)C(=O)[C@@H]2C(=O)Nc2cnn(C(=O)OC(C)(C)C)c2Cl)c1 [491′]
- Mythimna separata/% (mortality) ([2]; 500 ppm): 70%
- Spodoptera frugiperda/% (mortality) [6]: 60%

Compound: Cc1cc(C)cc([C@H]2CN(C)C(=O)[C@@H]2C(=O)Nc2cnn(C)c2C=O)c1 [500′]
- Mythimna separata/% (mortality) ([2]; 500 ppm): 70%
- Spodoptera frugiperda/% (mortality) [6]: 60%

Compound: Cc1ccc([C@H]2CN(C)C(=O)[C@@H]2C(=O)Nc2cnn(C)c2Cl)o1 [522′]
- Mythimna separata/% (mortality) ([2]; 500 ppm): 70%
- Spodoptera frugiperda/% (mortality) [6]: 60%

Compound: CC(C)N1C(=O)c2ccccc2NS1(=O)=O [Bentazone, bentazone, reference compound]
- Control effect of B applied alone in a corresponding dose (%) ([1]; Paspalum distichum, B 375 g a.i./ha): 29.2%
- Control effect of B applied alone in a corresponding dose (%) ([1]; Paspalum distichum, B 750 g a.i./ha): 36.7%

Compound: Nc1c(Cl)c(F)nc(OCC(=O)O)c1Cl [Fluroxypyr, fluroxypyr, reference compound]
- Control effect of B applied alone in a corresponding dose (%) [1, 10]: 52.5%
- Control effect of B applied alone in a corresponding dose (%) [1, 11]: 65.8%

Compound: CC(C)Oc1cc(-n2nc(C(C)(C)C)oc2=O)c(Cl)cc1Cl [Oxadiazon, oxadiazon]
- pest or weed control at 30 g/ha [9, 12]: 50.5%
- pest or weed control at 60 g/ha [9, 13]: 68.7%

Compound: CC1=C(c2ccccc2)C(=O)N(C(C)(C)c2cc(Cl)cc(Cl)c2)CO1 [Oxaziclomefone, oxaziclomefone]
- pest or weed control at 7.5 g/ha ([9]; Paspalum distichum, S, B 7.5 g a.i./ha): 36.9%
- pest or weed control at 15 g/ha ([9]; Paspalum distichum, S, B 15 g a.i./ha): 48.5%

Compound: CCOc1cc(Oc2ccc(C(F)(F)F)cc2Cl)ccc1[N+](=O)[O-] [Oxyfluorfen, oxyfluorfen]
- pest or weed control at 7.5 g/ha [9, 14]: 51%
- pest or weed control at 15 g/ha [9, 15]: 69.3%

Compound: CC(C)=C1OC(=O)N(c2cc(OC3CCCC3)c(Cl)cc2F)C1=O [Pentoxazone, pentoxazone]
- pest or weed control at 30 g/ha ([9]; Rotala indica): 55.3%
- pest or weed control at 60 g/ha ([9]; Rotala indica): 62.7%

Compound: CCCOCCN(C(=O)CCl)c1c(CC)cccc1CC [Pretilachlor, pretilachlor]
- pest or weed control at 75 g/ha ([9]; Rotala indica, S, B 75 g a.i./ha): 54.2%
- pest or weed control at 150 g/ha ([9]; Rotala indica, S, B 150 g a.i./ha): 63.9%

Compound: CCC(=O)Nc1ccc(Cl)c(Cl)c1 [Propanil, propanil, reference compound]
- Control effect of B applied alone in a corresponding dose (%) ([1]; Paspalum distichum, B 300 g a.i./ha): 48.3%
- Control effect of B applied alone in a corresponding dose (%) ([1]; Paspalum distichum, B 600 g a.i./ha): 56.1%

Compound: C#CCN(C)c1c(C#N)cnn1-c1nn2c(c1Cl)CCCC2 [Pyraclonil, pyraclonil]
- Control effect of B applied alone in a corresponding dose (%) [9, 12]: 48.2%
- Control effect of B applied alone in a corresponding dose (%) [9, 13]: 63.4%

Compound: CCNc1nc(NCC)nc(SC)n1 [Simetryn, simetryn]
- pest or weed control at 75 g/ha ([9]; Paspalum distichum): 45.5%
- pest or weed control at 150 g/ha ([9]; Paspalum distichum): 54.8%

Compound: CS(=O)(=O)c1ccc(C(=O)C2C(=O)CCCC2=O)c(Cl)c1COCC1CCCO1 (centres unmarked) [Tefuryltrione, tefuryltrione]
- Control effect of B applied alone in a corresponding dose (%) [9, 15]: 30.8%
- Control effect of B applied alone in a corresponding dose (%) [9, 12]: 45.2%

Compound: oxadiargyl
- Control effect of B applied alone in a corresponding dose (%) [9, 14]: 47.2%
- Control effect of B applied alone in a corresponding dose (%) [9, 15]: 58.6%
